Data: patent US20220152159A1, “PHARMACEUTICAL COMPOSITION, METHODS FOR TREATING AND USES THEREOF” (Boehringer Ingelheim International GmbH, priority 2010, published 2022)

Key:
[1] = test system: streptozotocin-pretreated male Sprague-Dawley rats (experimental diabetes, type 1 diabetic condition); assay: Example 1a: blood glucose over 4 h after SGLT2 inhibitor, insulin glargine or combination; type: in vivo, rat; conditions: four hours after administration, Cpd. A 10 mg/kg oral, insulin glargine 1.5 IU/animal s.c.; for reduction of blood glucose versus control: combination at the same doses, 3-h fasted STZ rats; for statistical difference of blood glucose versus control: combination same doses
Description: All experimental protocols concerning the use of laboratory animals were reviewed by a federal Ethics Committee and approved by governmental authorities. Two weeks before the study starts, the rats were pretreated with a single dose of 60 mg/kg i.p. of streptozotocin to induced experimental diabetes, resembling a type 1 diabetic condition. During the study blood glucose was followed over 4 h in male, 3-h fasted Sprague-Dawley rats (Crl:CD) with an age of 8-9 weeks at the start of the study. A pre-dose blood sample was obtained by tail bleed for randomization and blood glucose was measured with a glucometer 30, 60, 90 min and 2, 3, 4 hours after administration of the insulin and/or the SGLT2 inhibitor. At time point 0 min, the animals (n=4-6 per group) were injected either with insulin glargine or isotonic NaCl subcutaneously. Simultaneously all animals received oral administrations of either vehicle alone (0.5% aqueous hydroxyethylcellulose) or this vehicle containing the SGLT2 inhibitor. The data are presented as mean±S.E.M. Statistical comparison was conducted by repeated measures two-way ANOVA (analysis of variance) followed by Bonferroni post tests for group-wise comparisons. A p value <0.05 was considered to show a statistically significant difference. The term “Cpd. A” denotes the SGLT2 inhibitor compound (1.9) at a dose of 10 mg/kg. Insulin glargine was administered at a dose of 1.5 IU/animal. The term “Cpd. A+Insulin glargine” denotes the combination of the SGLT2 inhibitor compound (1.9) and insulin glargine at the same doses. P values versus control are indicated by asterisks and p values of the monotherapies versus the combination are indicated by crosses (one symbol, p<0.05; two symbols, p<0.01; three symbols, p<0.001). Four hours after administration, the SGLT2 inhibitor had reduced blood glucose by 19% versus control, and insulin glargine by 27%.

[2] = test system: streptozotocin-pretreated male Sprague-Dawley rats (experimental diabetes, type 1 diabetic condition); assay: Example 1b: blood glucose over 6 h after SGLT2 inhibitor, insulin glargine or combination; type: in vivo, rat; conditions: six hours after administration, Cpd. A 10 mg/kg oral, insulin glargine 1.5 μl/animal s.c.; for reduction of blood glucose versus control: combination at the same doses, 3-h fasted STZ rats; for statistical difference of blood glucose versus control: combination same doses
Description: All experimental protocols concerning the use of laboratory animals were reviewed by a federal Ethics Committee and approved by governmental authorities. Two weeks before the study starts, the rats were pretreated with a single dose of 60 mg/kg i.p. of streptozotocin to induced experimental diabetes, resembling a type 1 diabetic condition. During the study blood glucose was followed over 6 h in male, 3-h fasted Sprague-Dawley rats (Crl:CD) with an age of 8-9 weeks at the start of the study. A pre-dose blood sample was obtained by tail bleed for randomization and blood glucose was measured with a glucometer 30, 60, 90 min and 2, 3, 4, 5, 6 hours after administration of insulin and/or the SGLT2 inhibitor. At time point 0 min, the animals (n=4-6 per group) were injected either with insulin glargine or isotonic NaCl subcutaneously. Simultaneously all animals received oral administrations of either vehicle alone (0.5% aqueous hydroxyethylcellulose) or this vehicle containing the SGLT2 inhibitor. The data are presented as mean±S.E.M. Statistical comparison was conducted by repeated measures two-way ANOVA followed by Bonferroni post tests for group-wise comparisons. A p value <0.05 was considered to show a statistically significant difference. The term “Cpd. A” denotes the SGLT2 inhibitor compound (1.9) at a dose of 10 mg/kg. Insulin glargine was administered at a dose of 1.5 μl/animal. The term “Cpd. A+Insulin glargine” denotes the combination of the SGLT2 inhibitor compound (1.9) and insulin glargine at the same doses. P values versus control are indicated by asterisks and p values of the monotherapies versus the combination are indicated by crosses (one symbol, p<0.05; two symbols, p<0.01; three symbols, p<0.001). Six hours after administration, the SGLT2 inhibitor had reduced blood glucose by 13% versus control, and insulin glargine by 22%.

[3] = test system: the diabetic; conditions: metformin on its own; cited from earlier work
[4] = test system: streptozotocin-pretreated male Sprague-Dawley rats (experimental diabetes, type 1 diabetic condition); assay: Example 2a: blood glucose over 4 h, SGLT2 inhibitor plus low-dose insulin glargine versus high-dose insulin glargine; type: in vivo, rat; conditions: for reduction of blood glucose versus control: four hours after administration; for statistical difference of blood glucose versus control: four hours
Description: All experimental protocols concerning the use of laboratory animals were reviewed by a federal Ethics Committee and approved by governmental authorities. Two weeks before the study starts, the rats were pretreated with a single dose of 60 mg/kg i.p. of streptozotocin to induced experimental diabetes, resembling a type 1 diabetic condition. During the study blood glucose was followed over 4 h in male, 3-h fasted Sprague-Dawley rats (Crl:CD) with an age of 8-9 weeks at the start of the study. A pre-dose blood sample was obtained by tail bleed for randomization and blood glucose was measured with a glucometer 30, 60, 90 min and 2, 3, 4 h after administration of the insulin alone or together with the SGLT2 inhibitor. At time point 0 min, the animals (n=4-6 per group) were injected either with insulin glargine or isotonic NaCl subcutaneously. Simultaneously all animals received oral administrations of either vehicle alone (0.5% aqueous hydroxyethylcellulose) or this vehicle containing the SGLT2 inhibitor. The data are presented as mean±S.E.M. Statistical comparison was conducted by repeated measures two-way ANOVA followed by Bonferroni post tests for group-wise comparisons. A p value <0.05 was considered to show a statistically significant difference. Insulin glargine was administered at a dose of 1.5 μl/animal (low-dose) or 6 μl/animal (high-dose). The term “Cpd. A+low-dose insulin glargine” denotes the combination of the SGLT2 inhibitor at a dose of 10 mg/kg and insulin glargine at a dose of 1.5 μl/animal. P values versus control are indicated by asterisks and p values of the low-dose insulin glargine versus the combination or the high-dose insulin glargine are indicated by crosses (one symbol, p<0.05; two symbols, p<0.01; three symbols, p<0.001). […] The combination had decreased blood glucose by 53%, which was in the range of the high-dose insulin glargine with a decrease of 47%.

[5] = test system: streptozotocin-pretreated male Sprague-Dawley rats (experimental diabetes, type 1 diabetic condition); assay: Example 2b: blood glucose over 6 h, SGLT2 inhibitor plus low-dose insulin glargine versus high-dose insulin glargine; type: in vivo, rat; conditions: for reduction of blood glucose versus control: six hours after administration; for statistical difference of blood glucose versus control: six hours
Description: All experimental protocols concerning the use of laboratory animals were reviewed by a federal Ethics Committee and approved by governmental authorities. Two weeks before the study starts, the rats were pretreated with a single dose of 60 mg/kg i.p. of streptozotocin to induced experimental diabetes, resembling a type 1 diabetic condition. During the study blood glucose was followed over 6 h in male, 3-h fasted Sprague-Dawley rats (Crl:CD) with an age of 8-9 weeks at the start of the study. A pre-dose blood sample was obtained by tail bleed for randomization and blood glucose was measured with a glucometer 30, 60, 90 min and 2, 3, 4, 5, 6 h after administration of insulin alone or together with the SGLT2 inhibitor. At time point 0 min, the animals (n=4-6 per group) were injected either with insulin glargine or isotonic NaCl subcutaneously. Simultaneously all animals received oral administrations of either vehicle alone (0.5% aqueous hydroxyethylcellulose) or this vehicle containing the SGLT2 inhibitor. The data are presented as mean±S.E.M. Statistical comparison was conducted by repeated measures two-way ANOVA followed by Bonferroni post tests for group-wise comparisons. A p value <0.05 was considered to show a statistically significant difference. Insulin glargine was administered at a dose of 1.5 μl/animal (low-dose) or 6 IU/animal (high-dose). The term “Cpd. A+low-dose insulin glargine” denotes the combination of the SGLT2 inhibitor at a dose of 10 mg/kg and insulin glargine at a dose of 1.5 μl/animal. P values versus control are indicated by asterisks and p values of the low-dose insulin glargine versus the combination or the high-dose insulin glargine are indicated by crosses (one symbol, p<0.05; two symbols, p<0.01; three symbols, p<0.001). […] The combination had decreased blood glucose by 49%, which was in the range of the high-dose insulin glargine with a decrease of 44%.

[6] = low-dose insulin glargine 1.5 μl/animal s.c., alone or with Cpd. A 10 mg/kg oral
[7] = low-dose insulin glargine 1.5 μl/animal, alone or with Cpd. A 10 mg/kg

Row | Molecule | reduction of blood glucose versus control [1] [%] | statistical difference of blood glucose versus control [1] | reduction of blood glucose versus control [2] [%] | statistical difference of blood glucose versus control [2] | average improvement in the HbA1c value [3] | reduction of blood glucose versus control ([4]; high-dose insulin glargine 6 μl/animal s.c.) [%] | reduction of blood glucose versus control [4, 6] [%] | statistical difference of blood glucose versus control ([4]; high-dose insulin glargine 6 μl/animal) | statistical difference of blood glucose versus control [4, 7] | reduction of blood glucose versus control ([5]; high-dose insulin glargine 6 IU/animal s.c.) [%] | reduction of blood glucose versus control [5, 6] [%] | statistical difference of blood glucose versus control ([5]; high-dose insulin glargine 6 IU/animal) | statistical difference of blood glucose versus control [5, 7]
1 | OC[C@H]1O[C@@H](c2ccc(Cl)c(Cc3ccc(O[C@H]4CCOC4)cc3)c2)[C@H](O)[C@@H](O)[C@@H]1O [compound (1.9), 1-chloro-4-(β-D-glucopyranos-1-yl)-2-[4-((S)-tetrahydrofuran-3-yloxy)-benzyl]-benzene] | 19 | did not show statistically significant differences versus control | 13 | did not show statistically significant differences versus control | – | – | – | – | – | – | – | – | –
2 | CN(C)C(=N)N=C(N)N [metformin] | – | – | – | – | 1.0-1.5% | – | – | – | – | – | – | – | –
3 | Gly^A21, Arg^B31, Arg^B32 human insulin [insulin glargine] | 27 | did not show statistically significant differences versus control | 22 | did not show statistically significant differences versus control | – | 47 | 27 | significantly different from the control | without showing statistically significant difference | 44 | 22 | significantly different from the control | without showing statistically significant difference
